Measured values from patent publication US12276654B2, “Chemical probe-dependent evaluation of protein activity and uses thereof” (The University of Chicago, priority 2017, dated 2025).

What was measured:
[1] = target: T1, NCEH1 (Homo sapiens, UniProt Q6PIU2); test: sADPL in situ target engagement in cancer cells, NCEH1; type: cell-based; design: endogenous NCEH1 activity in SKOV3 cells; endogenous in cells; host or cells: SKOV3; wild-type PC3; PAFAH2-expressing PC3; settings: inhibitor prior to family-wide probe
T1 sequence (Q6PIU2 1-408): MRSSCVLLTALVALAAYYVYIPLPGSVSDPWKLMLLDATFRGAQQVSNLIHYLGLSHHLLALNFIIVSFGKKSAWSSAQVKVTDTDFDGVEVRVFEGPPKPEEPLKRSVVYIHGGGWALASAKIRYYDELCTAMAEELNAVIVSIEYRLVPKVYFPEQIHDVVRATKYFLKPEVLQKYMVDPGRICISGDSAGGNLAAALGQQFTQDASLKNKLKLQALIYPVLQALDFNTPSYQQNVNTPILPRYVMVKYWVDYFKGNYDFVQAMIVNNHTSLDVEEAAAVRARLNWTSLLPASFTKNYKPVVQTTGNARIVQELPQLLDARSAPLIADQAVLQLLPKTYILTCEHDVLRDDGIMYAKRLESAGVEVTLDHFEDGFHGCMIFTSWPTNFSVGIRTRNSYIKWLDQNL
Procedure: FIG. 23. In situ Target Engagement. Cancer cells were treated with DMSO as the control, with inhibitor prior to family wide probe to pre-block the active site, or with family-wide probe directly. Then sADPL workflow was applied to read out the CT difference. Serine hydrolase NCEH1 and its specific inhibitor JW480, or FAAH and inhibitor PF3845 were applied. The activity fold change was transformed from CT value with PCR amplification factor 1.91 determined by a standard qPCR curve and the activities were normalized to DMSO control at different cell lysate concentrations. […] To quantitatively measure the target engagement, different dose of JW480 was applied to either its target NCEH1, or off-target MGLL.
As another alternative detection method, sADPL is complementary with gel-based and MS-based detection methods. In this design, the inventors treat the live cell with several family-wide probes. The probes will label all the members of the protein families. Then one could get the labeled proteome after the cell lysis. […]
A summary of this assay is provided below: • 1. […] In the oligo design, the orthogonal forward primers were employed for different antibody to enable the multiplexing real time PCR readout. […]
Two amine modified oligos were conjugated to antibody and streptavidin, respectively. […] A Taqman probe was designed for real time PCR quantification. […]

[2] = target: T2, NCEH1 (Mus musculus, UniProt Q8BLF1); test: sADPL in vivo target engagement in mPBMCs after oral gavage, NCEH1; settings: mice
T2 construct: Then the mPBMCs were acquired from the mouse blood and subjected to family wide probe treatment; from tissue; host or cells: mouse blood PBMCs (mPBMCs)
T2 sequence (Q8BLF1 1-408): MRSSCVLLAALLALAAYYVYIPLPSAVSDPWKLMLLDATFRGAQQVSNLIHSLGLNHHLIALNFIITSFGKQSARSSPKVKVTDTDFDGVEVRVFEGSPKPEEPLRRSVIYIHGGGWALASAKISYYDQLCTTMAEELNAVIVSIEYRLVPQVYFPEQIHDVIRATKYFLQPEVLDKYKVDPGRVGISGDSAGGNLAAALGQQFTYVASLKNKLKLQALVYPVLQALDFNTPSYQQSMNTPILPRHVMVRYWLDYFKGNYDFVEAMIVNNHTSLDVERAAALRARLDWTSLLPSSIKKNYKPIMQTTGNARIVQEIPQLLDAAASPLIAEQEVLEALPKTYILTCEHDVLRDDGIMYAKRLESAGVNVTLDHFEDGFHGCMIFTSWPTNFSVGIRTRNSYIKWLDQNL
Source text: FIG. 25. In vivo Target Engagement. The mice were administrated with vehicle (PEG300) or NCEH1 inhibitor JW480 by oral gavage. Then the mPBMCs were acquired from the mouse blood and subjected to family wide probe treatment to profile the in vivo target engagement.
Following the in vitro study, in vivo target engagement was planned. In this experiment, the inventors orally gavaged the mice with vehicle or inhibitors, then collected the mPBMCs for probe treatment and sADPL measurement. Again, first the activity of NCEH1 was tested in mice PBMCs, and good activity was found. The delta Ct is over 7 cycles, which is over 100 fold change.

`CC(C)c1ccccc1OC(=O)NCCc1ccc2ccccc2c1` [JW480] was tested, and the IC50 ([1]; cancer cells treated in situ, read-out: apparent IC50, dose-dependent inhibition of NCEH1 by sADPL) was 17.8 nM, the “NCEH1 activity in inhibitor competition group by sADPL, normalized to DMSO control” value ([1]; cancer cells) was “bring the activities down to the levels of DMSO controls” and the “NCEH1 activity in mPBMCs (raw Ct values)” value ([2]; 3 mg/kg (partial inhibition) vs vehicle PEG300) was “lower activity”. The “NCEH1 activity in mPBMCs (raw Ct values)” value ([2]; 80 mg/kg (complete inhibition) vs vehicle PEG300) was “even lower activity”.
